Our source for the IC50 values is patent US12486229B2, “Indole derivative and application thereof” (SHANGHAI MEDICILON INC., priority 2020, dated 2025).

Broadly, the IC50 is the point on the concentration scale where inhibition reaches its midpoint. A lower IC50 goes with higher potency.

The target in this experiment is T1, S1P1 (Homo sapiens, UniProt P21453).
T1 construct: host or cells: U2OS (human osteosarcoma) cell line, U2OS-EDG1
In words: S1P1 overexpression cell activity by β-arrestin assay (U2OS-EDG1). Format: cell-based. The conditions noted are these: U2OS-EDG1 cells. Here is the method:
The following experiments were conducted to detect the activity of the compound on S1P1 overexpression cells by β-arrestin assay. [table] [table] 3. Experimental Steps Day 1: Cell Seeding Plate and Compound Treatment • (1) Firstly, the compound was diluted by a 4-fold gradient into 10 concentration points from the concentration of 10 μM in the culture plate by using NL fluid transfer system, with 2 replicates at each concentration point. • (2) Cells were resuspended by using FreeStyle™ expression medium, and the cell density was adjusted to 7,500 cells per 40 μL suspension. The samples with test concentration were added into the well of the cell culture plate, and 40 μL cell suspension was added into the corresponding well. • (3) The above cell plates were incubated overnight in a CO2 incubator with 5% (volume fraction) at 37° C. Day 2: Detection and Data Analysis • (1) The buffer solution was prepared according to the preparation method in the instructions of LiveBLAser™-fluorescence resonance energy transfer B/G loading kit. • (2) 8 μL detection reagent was added to each well, which were shaken and mixed evenly for 1 minute, centrifugated at 1,000 rpm for 10 seconds, and incubated at 23° C. in dark for 2 hours. • 3) Detection was performed by multimode reader. • 4) The PrismDemo software was used to analyze the data and fit the curve. 4. Experimental Results

T1 sequence (P21453 whole entry): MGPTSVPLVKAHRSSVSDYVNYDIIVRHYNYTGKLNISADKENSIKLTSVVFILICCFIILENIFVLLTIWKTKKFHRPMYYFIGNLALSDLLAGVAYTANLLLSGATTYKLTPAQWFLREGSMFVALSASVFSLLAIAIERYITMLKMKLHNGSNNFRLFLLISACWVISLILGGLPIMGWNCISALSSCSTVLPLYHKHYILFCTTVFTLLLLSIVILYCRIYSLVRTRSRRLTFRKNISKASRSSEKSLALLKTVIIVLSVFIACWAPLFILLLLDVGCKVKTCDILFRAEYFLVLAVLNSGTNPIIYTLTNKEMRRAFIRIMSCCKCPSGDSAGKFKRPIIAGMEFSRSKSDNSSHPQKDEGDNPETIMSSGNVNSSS

With `O=C(O)CCCn1ccc2cc(OCc3ccc(C4CCCC4)c(C(F)(F)F)c3)cc(Cl)c21` [Compound of Example 5, 4-(7-chlorine-5-((4-cyclopentyl-3-(trifluoromethyl)benzyl)oxy)-1H-indole-1-yl)butyric acid], half-maximal inhibition (IC50) required 0.251 nM.
Under `O=C(O)Cn1ccc2cc(OCc3ccc(C4CCCC4)c(C(F)(F)F)c3)ccc21` [Compound of Example 6, 2-(5-((4-cyclopentyl-3-(trifluoromethyl)benzyl)oxy)-1H-indole-1-yl)acetic acid] stands 175 nM.
